Test results reported in ChEMBL document CHEMBL4033685, “C21-steroidal pregnane sapogenins and their derivatives as anti-inflammatory agents” (Bioorg Med Chem, 2017).
pEC50: −log10 of the molar value. Active and inactive are the calls of the source. The calls are words filed in the database; no cut-off is given here.

How the values were obtained:
Toll-like receptor 4 [1] = molecular target: T1, Toll-like receptor 4 (Homo sapiens, UniProt O00206); assay: Antagonist activity at TLR4 in human THP1 cells assessed as inhibition of LPS-stimulated RANTES mRNA level at 10 uM after 16 hrs by RT-PCR method; type: cell-based
T1 sequence (O00206 whole entry): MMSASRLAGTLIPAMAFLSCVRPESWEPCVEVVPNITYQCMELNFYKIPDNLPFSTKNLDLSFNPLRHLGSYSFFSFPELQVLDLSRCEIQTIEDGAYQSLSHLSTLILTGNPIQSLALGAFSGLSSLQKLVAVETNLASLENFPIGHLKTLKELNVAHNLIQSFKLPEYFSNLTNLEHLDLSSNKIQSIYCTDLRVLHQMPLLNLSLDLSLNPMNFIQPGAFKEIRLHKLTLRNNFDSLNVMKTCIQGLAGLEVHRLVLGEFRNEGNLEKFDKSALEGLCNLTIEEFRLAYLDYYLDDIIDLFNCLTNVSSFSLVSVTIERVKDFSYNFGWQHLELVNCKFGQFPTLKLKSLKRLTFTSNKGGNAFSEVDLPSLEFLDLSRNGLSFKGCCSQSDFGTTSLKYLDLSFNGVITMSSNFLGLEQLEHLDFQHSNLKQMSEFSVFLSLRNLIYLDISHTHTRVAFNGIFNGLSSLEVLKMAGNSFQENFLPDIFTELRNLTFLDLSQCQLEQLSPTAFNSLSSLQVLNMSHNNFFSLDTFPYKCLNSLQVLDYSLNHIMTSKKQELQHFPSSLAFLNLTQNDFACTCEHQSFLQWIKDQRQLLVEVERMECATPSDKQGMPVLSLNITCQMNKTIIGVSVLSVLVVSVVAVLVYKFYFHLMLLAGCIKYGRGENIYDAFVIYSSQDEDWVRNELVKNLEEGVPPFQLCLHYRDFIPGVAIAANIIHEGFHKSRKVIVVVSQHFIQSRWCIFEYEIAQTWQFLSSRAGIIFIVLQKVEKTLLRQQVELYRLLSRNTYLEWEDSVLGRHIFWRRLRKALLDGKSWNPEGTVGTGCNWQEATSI

Toll-like receptor 4 [2] = molecular target: T1, Toll-like receptor 4; assay: Antagonist activity at TLR4 in human THP1 cells assessed as inhibition of LPS-stimulated IL-6 mRNA level at 10 uM after 16 hrs by RT-PCR method; type: cell-based
Homo sapiens = species on record: Homo sapiens; assay: Inhibition of TNFalpha-stimulated NF-kB signaling pathway (unknown origin) expressed in human AD293 cells after 4 hrs by luciferase reporter gene assay; type: cell-based
AD293 [3] = assay: Cytotoxicity against human AD293 cells assessed as reduction in cell viability after 24 hrs by methylene blue dye based spectrophotometric method; details: ad293, 24 h
Toll-like receptor 4 [4] = molecular target: T1, Toll-like receptor 4; assay: Antagonist activity at TLR4 (unknown origin) expressed in human AD293 cells assessed as inhibition of LPS/ATP-stimulated TLR4/NF-kB signaling pathway after 16 hrs by luciferase reporter gene assay; type: cell-based
AD293 [5] = assay: Cytotoxicity against human AD293 cells assessed as reduction in cell viability at 10 uM after 24 hrs by methylene blue dye based spectrophotometric method; details: ad293, 24 h
Toll-like receptor 4 [6] = molecular target: T1, Toll-like receptor 4; assay: Antagonist activity at TLR4 (unknown origin) expressed in human AD293 cells assessed as inhibition of LPS/ATP-stimulated TLR4/NF-kB signaling pathway at 10 uM after 16 hrs by luciferase reporter gene assay; type: cell-based

For `CC(=O)[C@]1(O)CC[C@@]2(O)[C@]1(C)[C@H](OC(=O)/C=C(\C)C(C)C)C[C@@H]1[C@@]3(C)CC[C@H](OC(=O)c4ccc(Cl)nc4)CC3=CC[C@]12O`, the inhibition (Toll-like receptor 4 [1]) was “inactive” and the inhibition (Toll-like receptor 4 [2]) was “inactive”.
`C[C@@H](OC(=O)c1cccnc1)[C@]1(O)CC[C@@]2(O)[C@]1(C)[C@H](OC(=O)/C=C/c1ccccc1)C[C@@H]1[C@@]3(C)CC[C@H](OC(=O)c4ccccc4)CC3=CC[C@]12O` was tested, and the EC10 (Homo sapiens) was over 10 µM, the CC10 (AD293 [3]) was over 10 µM and the pEC50 (Toll-like receptor 4 [4]) was 4.96.
`CC(=O)O[C@H]1CC[C@@]2(C)C(=CC[C@]3(O)[C@@H]2C[C@@H](OC(=O)c2ccc(O)cc2)[C@@]2(C)[C@]3(O)CC[C@@]2(O)C(C)=O)C1` was tested, and the inhibition (Toll-like receptor 4 [1]) was “inactive” and the inhibition (Toll-like receptor 4 [2]) was “inactive”.
In the case of `CC(=O)[C@]1(O)CC[C@@]2(O)[C@]1(C)[C@H](OC(=O)/C=C(\C)C(C)C)C[C@@H]1[C@@]3(C)CC[C@H](Cl)CC3=CC[C@]12O`, the EC10 (Homo sapiens) was over 10 µM, the CC10 (AD293 [3]) was over 10 µM and the pEC50 (Toll-like receptor 4 [4]) was 4.92.
With `CC(=O)[C@]1(O)CC[C@@]2(O)[C@]1(C)[C@H](OC(=O)/C=C(\C)C(C)C)C[C@@H]1[C@@]3(C)CC[C@H](OC(=O)/C=C/c4ccccc4)CC3=CC[C@]12O` the inhibition (Toll-like receptor 4 [1]) was “inactive” and the inhibition (Toll-like receptor 4 [2]) was “inactive”.
With `CC(=O)[C@]1(O)CC[C@@]2(O)[C@]1(C)[C@H](OC(=O)c1ccccc1)C[C@@H]1[C@@]3(C)CC[C@H](O)CC3=CC[C@]12O` the inhibition (Toll-like receptor 4 [1]) was “inactive” and the inhibition (Toll-like receptor 4 [2]) was “inactive”.
With `CC(=O)[C@]1(OC(=O)c2ccccc2I)CC[C@@]2(O)[C@]1(C)[C@H](OC(=O)c1ccc(O)cc1)C[C@@H]1[C@@]3(C)CC[C@H](OC(=O)c4ccccc4I)CC3=CC[C@]12O` the inhibition (Toll-like receptor 4 [1]) was “inactive”, the Activity (AD293 [5]) was “Toxic” and the inhibition (Toll-like receptor 4 [2]) was “inactive”. For the same compound, the inhibition (Toll-like receptor 4 [6]) was “inactive”.
`C[C@@H](OC(=O)c1cccnc1)[C@]1(O)CC[C@@]2(O)[C@]1(C)[C@H](OC(=O)/C=C/c1ccccc1)C[C@@H]1[C@@]3(C)C=CC(=O)C=C3C=C[C@]12O` showed an EC10 (Homo sapiens) of over 10 µM, a CC10 (AD293 [3]) of over 10 µM and a pEC50 (Toll-like receptor 4 [4]) of 5.20.
Work on `CC(=O)[C@]1(O)CC[C@@]2(O)[C@]1(C)[C@H](OC(=O)/C=C(\C)C(C)C)C[C@@H]1[C@@]3(C)CCC(=O)CC3=CC[C@]12O` yielded an EC10 (Homo sapiens) of over 10 µM, an EC10 (AD293 [3]) of over 10 µM and a pEC50 (Toll-like receptor 4 [4]) of 4.93.
In the case of `CCC(=O)O[C@H]1CC[C@@]2(C)C(=CC[C@]3(O)[C@@H]2C[C@@H](OC(=O)c2ccc(O)cc2)[C@@]2(C)[C@]3(O)CC[C@@]2(OC(=O)CC)C(C)=O)C1`, the Activity (AD293 [5]) was “Toxic” and the inhibition (Toll-like receptor 4 [6]) was “inactive”.
In the case of `CC(=O)[C@]1(OC(=O)c2ccc([N+](=O)[O-])cc2)CC[C@@]2(O)[C@]1(C)[C@H](OC(=O)c1ccc(O)cc1)C[C@@H]1[C@@]3(C)CC[C@H](OC(=O)c4ccc([N+](=O)[O-])cc4)CC3=CC[C@]12O`, the Activity (AD293 [5]) was “Toxic” and the inhibition (Toll-like receptor 4 [6]) was “inactive”.
With `CC(=O)[C@]1(O)CC[C@@]2(O)[C@]1(C)[C@H](OC(=O)c1ccc(O)cc1)C[C@@H]1[C@@]3(C)CCC(=O)CC3=CC[C@]12O` the Activity (AD293 [5]) was “Toxic” and the inhibition (Toll-like receptor 4 [6]) was “inactive”.
For `CC(=O)O[C@H]1CC[C@@]2(C)C(=CC[C@]3(O)[C@@H]2C[C@@H](OC(=O)/C=C/c2ccccc2)[C@@]2(C)[C@]3(O)CC[C@@]2(O)C(C)=O)C1`, the Activity (AD293 [5]) was “Toxic” and the inhibition (Toll-like receptor 4 [6]) was “inactive”.
In the case of `CC(O)[C@]1(O)CC[C@@]2(O)[C@]1(C)[C@H](OC(=O)c1ccc(O)cc1)C[C@@H]1[C@@]3(C)CC[C@H](O)CC3=CC[C@]12O` (stereo partly drawn), the Activity (AD293 [5]) was “Toxic” and the inhibition (Toll-like receptor 4 [6]) was “inactive”.
`CC(=O)[C@]1(OC(=O)c2cccc3ccccc23)CC[C@@]2(O)[C@]1(C)[C@H](OC(=O)c1ccc(O)cc1)C[C@@H]1[C@@]3(C)CC[C@H](OC(=O)c4cccc5ccccc45)CC3=CC[C@]12O` was tested, and the Activity (AD293 [5]) was “Toxic” and the inhibition (Toll-like receptor 4 [6]) was “inactive”.
In the case of `C[C@H]1O[C@@H]2C[C@@H]3[C@@]4(C)CC[C@H](OC(=O)/C=C/c5ccccc5)CC4=CC[C@@]3(O)[C@@]3(O)CC[C@]1(OC(=O)/C=C/c1ccccc1)[C@@]23C`, the Activity (AD293 [5]) was “Toxic” and the inhibition (Toll-like receptor 4 [6]) was “inactive”.
With `CC(=O)[C@]1(OC(=O)c2ccc(Cl)nc2)CC[C@@]2(O)[C@]1(C)[C@H](OC(=O)c1ccc(O)cc1)C[C@@H]1[C@@]3(C)CC[C@H](OC(=O)c4ccc(Cl)nc4)CC3=CC[C@]12O` the Activity (AD293 [5]) was “Toxic” and the inhibition (Toll-like receptor 4 [6]) was “inactive”.
In the case of `C[C@@H](OC(=O)c1cccnc1)[C@]1(O)CC[C@@]2(O)[C@]1(C)[C@H](OC(=O)/C=C/c1ccccc1)C[C@@H]1[C@@]3(C)CC[C@H](OC(=O)/C=C/c4ccc([N+](=O)[O-])cc4)CC3=CC[C@]12O`, the EC10 (Homo sapiens) was over 10 µM, the CC10 (AD293 [3]) was over 10 µM and the pEC50 (Toll-like receptor 4 [4]) was 4.85.
